Data on 50 compounds can be found in US8575364B2, “Modulators of serotonin receptor” (Janssen Pharmaceutica NV, priority 2008, dated 2013).

Structures can show the parent of a compound that is named as a salt.

In general, Ki refers to a dissociation constant, usually derived from enzyme kinetics or from competition with a known ligand.

The test deals with rat 5-HT7 receptors (Rattus norvegicus (Rat), UniProt P32305). Briefly: r5-HT7 competitive radioligand binding assay ([3H]5-CT). The settings on record: membrane fractions of HEK-293 cells recombinantly expressing rat 5-HT7. As for the experimental part:
Compound affinity for the rat 5-HT7 receptor subtype was evaluated by competitive radioligand binding assays using 5-carboxamido[^3H]tryptamine ([^3H]5-CT) (Amersham Biosciences, cat. 90000403) detection. HitHunter™ cAMP assays are in-vitro based competitive immunoassays. […] Cells were pre-incubated with test compounds for 10 minutes. For agonistic testing, the concentration of test compound that produced a half-maximal response is represented by the EC50 value. Compounds were assayed in their free form or as salts, as indicated in the Examples section above.

Chain of rat 5-HT7 receptors (P32305 1-435): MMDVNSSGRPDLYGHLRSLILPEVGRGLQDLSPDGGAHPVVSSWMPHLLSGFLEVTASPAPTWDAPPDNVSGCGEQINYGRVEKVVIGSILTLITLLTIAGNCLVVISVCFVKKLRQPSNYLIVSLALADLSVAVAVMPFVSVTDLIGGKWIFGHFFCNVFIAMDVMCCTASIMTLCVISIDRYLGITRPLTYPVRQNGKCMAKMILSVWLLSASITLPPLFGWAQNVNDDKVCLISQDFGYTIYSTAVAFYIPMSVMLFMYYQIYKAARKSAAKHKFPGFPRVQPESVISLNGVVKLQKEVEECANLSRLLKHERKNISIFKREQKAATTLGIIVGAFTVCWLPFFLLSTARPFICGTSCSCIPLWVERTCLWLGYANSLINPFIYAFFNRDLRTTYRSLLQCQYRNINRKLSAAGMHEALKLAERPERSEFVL

As to `COc1ccc(-c2ccccc2C)cc1C1CCNC1` (racemic) [Example 43, (±)-3-(4-Methoxy-2′-methyl-biphenyl-3-yl)-pyrrolidine], the Ki was determined as 5.46 nM. For the compound `COc1ccc(-c2cccc(F)c2C)cc1C1CCNC1` (racemic) [Example 44, (±)-3-(3′-Fluoro-4-methoxy-2′-methyl-biphenyl-3-yl)-pyrrolidine], the inhibition constant Ki worked out at 19 nM.

Regarding `COc1ccc(-c2cccc(F)c2F)cc1C1CCNC1` (racemic) [Example 45, (±)-3-(2′,3′-Difluoro-4-methoxy-biphenyl-3-yl)-pyrrolidine], the Ki was determined as 52 nM. With `COc1ccc(-c2cccc(C(F)(F)F)c2)cc1C1CCNC1` (racemic) [Example 46, (±)-3-(4-Methoxy-3′-trifluoromethyl-biphenyl-3-yl)-pyrrolidine], the Ki was 117 nM. The same measure for `COc1ccc(-c2ccccc2C(F)(F)F)cc1C1CCNC1` (racemic) [Example 47, (±)-3-(4-Methoxy-2′-trifluoromethyl-biphenyl-3-yl)-pyrrolidine]: 7.98 nM; for `COc1ccc(-c2ccccc2OC(F)(F)F)cc1C1CCNC1` (racemic) [Example 48, (±)-3-(4-Methoxy-2′-trifluoromethoxy-biphenyl-3-yl)-pyrrolidine]: 19.8 nM.

`COc1ccc(-c2ccccc2)cc1C1CCNC1` (racemic) [Example 49, (±)-3-(4-Methoxy-biphenyl-3-yl)-pyrrolidine]: the inhibition constant Ki was found to be 130 nM.

With `COc1ccc(-c2ccccc2)cc1C1CCN(C)C1` (racemic) [Example 50, (±)-3-(4-Methoxy-biphenyl-3-yl)-1-methyl-pyrrolidine], the Ki was 150 nM. For `c1ccc(-c2ccccc2C2CCNC2)cc1` (racemic) [Example 51, (±)-3-Biphenyl-2-yl-pyrrolidine], the inhibition constant (Ki) was 120 nM. In the case of `Cc1cccc(-c2ccccc2C2CCNC2)c1` (racemic) [Example 52, (±)-3-(3′-Methyl-biphenyl-2-yl)-pyrrolidine], the Ki is 80.2 nM. For the compound `Cc1ccc(-c2ccccc2C2CCNC2)cc1` (racemic) [Example 54, (±)-3-(4′-Methyl-biphenyl-2-yl)-pyrrolidine], the Ki turned out to be 120 nM. `Cc1ccc(-c2ccccc2C2CCN(C)C2)cc1` (racemic) [Example 55, (±)-1-Methyl-3-(4′-methyl-biphenyl-2-yl)-pyrrolidine]: the Ki was 430 nM. For the compound `Cc1ccc(-c2ccccc2C2CCNC2)cc1C` (racemic) [Example 57, (±)-3-(3′,4′-Dimethyl-biphenyl-2-yl)-pyrrolidine], the inhibition constant (Ki) worked out at 55.9 nM. The figure for `Cc1ccccc1-c1ccccc1C1CCNC1` (racemic) [Example 59, (±)-3-(2′-Methyl-biphenyl-2-yl)-pyrrolidine] is 210 nM; for `Cc1ccccc1-c1ccccc1C1CCN(C)C1` (racemic) [Example 60, (±)-1-Methyl-3-(2′-methyl-biphenyl-2-yl)-pyrrolidine] it is 330 nM. With `COc1ccccc1-c1ccccc1C1CCNC1` (racemic) [Example 61, (±)-3-(2′-Methoxy-biphenyl-2-yl)-pyrrolidine], the Ki stood at 300 nM. `COc1ccccc1-c1ccccc1C1CCN(C)C1` (racemic) [Example 62, (±)-3-(2′-Methoxy-biphenyl-2-yl)-1-methyl-pyrrolidine]: the inhibitory constant (Ki) amounted to 730 nM. Regarding `COc1ccc(C)cc1-c1ccccc1C1CCNC1` (racemic) [Example 63, (±)-3-(2′-Methoxy-5′-methyl-biphenyl-2-yl)-pyrrolidine], the inhibition constant (Ki) stood at 1700 nM. Consider `Clc1cccc(-c2ccc(Cl)cc2C2CCNC2)c1` (racemic) [Example 65, (±)-3-(4,3′-Dichloro-biphenyl-2-yl)-pyrrolidine], for which the Ki was 130 nM. Regarding `Cc1cc(-c2ccc(Cl)cc2C2CCNC2)ccc1F` (racemic) [Example 66, (±)-3-(4-Chloro-4′-fluoro-3′-methyl-biphenyl-2-yl)-pyrrolidine], the inhibitory constant (Ki) amounted to 380 nM. The figure for `Cc1ccc(-c2ccc(Cl)cc2C2CCNC2)cc1C` (racemic) [Example 67, (±)-3-(4-Chloro-3′,4′-dimethyl-biphenyl-2-yl)-pyrrolidine] is 120 nM. With `COc1ccc(-c2ccc(F)cc2C)cc1OC1CNC1` [Example 2, 3-(4′-Fluoro-4-methoxy-2′-methyl-biphenyl-3-yloxy)-azetidine], the Ki was 21 nM.

Take `COc1ccc(-c2ccccc2C#N)cc1OC1CNC1` [Example 3, 3′-(Azetidin-3-yloxy)-4′-methoxy-biphenyl-2-carbonitrile trifluoroacetate]: the Ki was found to be 33.9 nM. As for `COc1ccc(-c2c(C)cccc2C)cc1OC1CNC1` [Example 6, 3-(4-Methoxy-2′,6′-dimethyl-biphenyl-3-yloxy)-azetidine trifluoroacetate], the Ki was determined as 8.2 nM. Regarding `COc1ccc(-c2ccccc2OC(F)(F)F)cc1OC1CNC1` [Example 7, 3-(4-Methoxy-2′-trifluoromethoxy-biphenyl-3-yloxy)-azetidine], the Ki came out at 10 nM. Take `COc1ccc(-c2ccccc2OC)cc1OC1CNC1` [Example 9, 3-(4,2′-Dimethoxy-biphenyl-3-yloxy)-azetidine]: the inhibitory constant (Ki) was 50 nM.

For `COc1ccc(-c2c(Cl)cccc2C(F)(F)F)cc1OC1CNC1` [Example 10, 3-(2′-Chloro-4-methoxy-6′-trifluoromethyl-biphenyl-3-yloxy)-azetidine trifluoroacetate], the Ki was found to be 112 nM. With `COc1ccc(-c2ccc(C)cc2)cc1OC1CNC1` [Example 11, 3-(4-Methoxy-4′-methyl-biphenyl-3-yloxy)-azetidine], the Ki came out at 760 nM. `COc1ccc(-c2ccc(F)c(C)c2)cc1OC1CNC1` [Example 12, 3-(4′-Fluoro-4-methoxy-3′-methyl-biphenyl-3-yloxy)-azetidine]: the inhibition constant Ki came out at 770 nM. As for `COc1ccc(-c2cccc(C)c2)cc1OC1CNC1` [Example 13, 3-(4-Methoxy-3′-methyl-biphenyl-3-yloxy)-azetidine], the inhibition constant Ki was 1000 nM. As for `COc1ccc(-c2ccc(C)c(C)c2)cc1OC1CNC1` [Example 14, 3-(4-Methoxy-3′,4′-dimethyl-biphenyl-3-yloxy)-azetidine], the inhibition constant Ki amounted to 250 nM. The figure for `COc1ccc(-c2ccccc2)cc1OC1CNC1` [Example 15, 3-(4-Methoxy-biphenyl-3-yloxy)-azetidine] is 120 nM.

As to `COc1ccc(-c2cc(C)ccc2C)cc1OC1CNC1` [Example 16, 3-(4-Methoxy-2′,5′-dimethyl-biphenyl-3-yloxy)-azetidine], the Ki amounted to 114 nM. Turning to `COc1ccc(-c2ccccc2Cl)cc1OC1CN(C(C)C)C1` [Example 18, 3-(2′-Chloro-4-methoxy-biphenyl-3-yloxy)-1-isopropyl-azetidine trifluoroacetate], the Ki was found to be 533 nM. Take `COc1ccc(-c2ccccc2Cl)cc1OC1CN(C2CCC2)C1` [Example 19, 3-(2′-Chloro-4-methoxy-biphenyl-3-yloxy)-1-cyclobutyl-azetidine trifluoroacetate]: the Ki came out at 300 nM. With `FC(F)(F)c1ccccc1-c1cccc(OC2CNC2)c1` [Example 20, 3-(2′-Trifluoromethyl-biphenyl-3-yloxy)-azetidine], the Ki was 25.5 nM. The figure for `Clc1ccccc1-c1cccc(OC2CNC2)c1` [Example 21, 3-(2′-Chloro-biphenyl-3-yloxy)-azetidine] is 34.6 nM; for `Cc1cccc(-c2cccc(OC3CNC3)c2)c1` [Example 22, 3-(3′-Methyl-biphenyl-3-yloxy)-azetidine] it is 752 nM; for `Cc1ccccc1-c1cccc(OC2CNC2)c1` [Example 23, 3-(2′-Methyl-biphenyl-3-yloxy)-azetidine] it is 67 nM. For the compound `Clc1ccc(-c2ccccc2Cl)cc1OC1CNC1` [Example 24, 3-(4,2′-Dichloro-biphenyl-3-yloxy)-azetidine trifluoroacetate], the Ki was found to be 8.89 nM. The figure for `FC(F)(F)c1ccccc1-c1ccc(Cl)c(OC2CNC2)c1` [Example 25, 3-(4-Chloro-2′-trifluoromethyl-biphenyl-3-yloxy)-azetidine trifluoroacetate] is 10.5 nM; for `Cc1ccccc1-c1ccc(Cl)c(OC2CNC2)c1` [Example 26, 3-(4-Chloro-2′-methyl-biphenyl-3-yloxy)-azetidine trifluoroacetate] it is 15.5 nM. The same measure for `Cc1cccc(-c2ccc(Cl)c(OC3CNC3)c2)c1` [Example 27, 3-(4-Chloro-3′-methyl-biphenyl-3-yloxy)-azetidine trifluoroacetate]: 410 nM. Regarding `N#Cc1ccc(-c2ccccc2C(F)(F)F)cc1OC1CNC1` [Example 28, 3-(Azetidin-3-yloxy)-2′-trifluoromethyl-biphenyl-4-carbonitrile], the Ki came out at 127 nM. The figure for `N#Cc1ccc(-c2ccccc2)cc1OC1CNC1` [Example 29, 3-(Azetidin-3-yloxy)-biphenyl-4-carbonitrile] is 10000 nM; for `Cc1ccccc1-c1ccc(C#N)c(OC2CNC2)c1` [Example 30, 3-(Azetidin-3-yloxy)-2′-methyl-biphenyl-4-carbonitrile] it is 508 nM.

As to `CCOc1ccc(-c2ccccc2C)cc1OC1CNC1` [Example 32, 3-(4-Ethoxy-2′-methyl-biphenyl-3-yloxy)-azetidine hydrochloride], the inhibition constant (Ki) came out at 454 nM. The figure for `Cc1ccccc1-c1ccc(OCC(F)(F)F)c(OC2CNC2)c1` [Example 33, 3-[2′-Methyl-4-(2,2,2-trifluoro-ethoxy)-biphenyl-3-yloxy]-azetidine] is 525 nM. The same measure for `Cc1ccccc1-c1ccc(OC2CCC2)c(OC2CNC2)c1` [Example 34, 3-(4-Cyclobutoxy-2′-methyl-biphenyl-3-yloxy)-azetidine]: 667 nM. The same measure for `Cc1ccccc1-c1ccc(OCC2CC2)c(OC2CNC2)c1` [Example 35, 3-(4-Cyclopropylmethoxy-2′-methyl-biphenyl-3-yloxy)-azetidine]: 755 nM.
